Measurements as given in PubChem BioAssay (NCI).
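Growth conditions: 96-well plates. Treatment: test compound, 48 hours, 5 concentrations. Analysis: linear interpolation between bracketing concentrations; unreached endpoints set to highest concentration. GI50 = concentration required for 50% inhibition of growth. At the TGI there is no net growth.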

Experiments:
Assay in all cases: DTP human tumour cell line panel, 48 h
[1] = system: A549 NSCLC
[2] = system: CAKI-1 renal
[3] = system: SNB-19 CNS
[4] = system: SK-MEL-2 melanoma
[5] = system: NCI-H522 lung
[6] = system: MOLT-4 leukemia
[7] = system: SF-539 CNS
[8] = system: NCI-H226 lung
[9] = system: HOP-62 NSCLC
[10] = system: SK-MEL-5 melanoma
[11] = system: MDA-MB-435
[12] = system: SK-OV-3 ovarian
[13] = system: UO-31 renal
[14] = system: MCF7 breast
[15] = system: NCI/ADR-RES ovarian
[16] = system: MDA-MB-231 breast
[17] = system: DU-145 prostate
[18] = system: SNB-75 CNS
[19] = system: ACHN renal
[20] = system: OVCAR-3 ovarian
[21] = system: U251 CNS
[22] = system: HT29 colon
[23] = system: MALME-3M melanoma
[24] = system: PC-3 prostate
[25] = system: OVCAR-5 ovarian
[26] = system: HCC-2998 colon
[27] = system: SN12C renal
[28] = system: RXF 393 renal
[29] = system: M14 melanoma
[30] = system: COLO 205 colon
[31] = system: KM12 colon
[32] = system: IGROV1 ovarian
[33] = system: SR leukemia
[34] = system: K-562 leukemia
[35] = system: SW-620 colon
[36] = system: HCT-15 colon
[37] = system: OVCAR-8 ovarian
[38] = system: SK-MEL-28 melanoma
[39] = system: OVCAR-4 ovarian
[40] = system: UACC-257 melanoma
[41] = system: UACC-62 melanoma
[42] = system: NCI-H23 lung
[43] = system: A498 renal
[44] = system: HS 578T breast
[45] = system: T-47D breast
[46] = system: 786-0 renal
[47] = system: SF-268 CNS
[48] = system: HCT-116 colon
[49] = system: CCRF-CEM leukemia
[50] = system: TK-10 renal
[51] = system: NCI-H460 lung
[52] = system: HOP-92 NSCLC
[53] = system: BT-549 breast
[54] = system: LOX IMVI melanoma
[55] = system: HL-60(TB) leukemia

CCOC(=O)N1C/C(=C/c2ccc(Cl)cc2)C(=O)/C(=C/c2ccc(Cl)cc2)C1
GI50 [1]: 3.06 µM | TGI [1]: 20.7 µM | GI50 [2]: 4.57 µM | TGI [2]: > 100 µM | GI50 [3]: 4.66 µM | TGI [3]: 18.4 µM | GI50 [4]: 19.6 µM | TGI [4]: 40.9 µM | GI50 [5]: 9.77 µM | TGI [5]: 22.4 µM | GI50 [6]: 4.65 µM | TGI [6]: > 100 µM | GI50 [7]: 2.67 µM | TGI [7]: 7.81 µM | GI50 [8]: 16.9 µM | TGI [8]: 52 µM | GI50 [9]: 2.47 µM | TGI [9]: 5.72 µM | GI50 [10]: 3.43 µM | TGI [10]: 13.1 µM | GI50 [11]: 3.33 µM | TGI [11]: 13 µM | GI50 [12]: 5.42 µM | TGI [12]: 20.8 µM | GI50 [13]: 2.36 µM | TGI [13]: 7.2 µM | GI50 [14]: 1.55 µM | TGI [14]: 8.04 µM | GI50 [15]: 7.45 µM | TGI [15]: 95.6 µM | GI50 [16]: 2.88 µM | TGI [16]: 9.37 µM | GI50 [17]: 4.36 µM | TGI [17]: 15.9 µM | GI50 [18]: 3.15 µM | TGI [18]: 16.2 µM | GI50 [19]: 3.04 µM | TGI [19]: 10.5 µM | GI50 [20]: 2.22 µM | TGI [20]: 4.57 µM | GI50 [21]: 1.98 µM | TGI [21]: 4.18 µM | GI50 [22]: 1.97 µM | TGI [22]: 3.95 µM | GI50 [23]: 15.4 µM | TGI [23]: 32 µM | GI50 [24]: 2.94 µM | TGI [24]: 15 µM | GI50 [25]: 4.43 µM | TGI [25]: 19.8 µM | GI50 [26]: 2.32 µM | TGI [26]: 5.29 µM | GI50 [27]: 2.84 µM | TGI [27]: 11.7 µM | GI50 [28]: 1.69 µM | TGI [28]: 3.34 µM | GI50 [29]: 4.23 µM | TGI [29]: 17.8 µM | GI50 [30]: 2.96 µM | TGI [30]: 8.83 µM | GI50 [31]: 2.1 µM | TGI [31]: 4.39 µM | GI50 [32]: 3.52 µM | TGI [32]: 13 µM | GI50 [33]: 1.49 µM | TGI [33]: > 100 µM | GI50 [34]: 3.34 µM | TGI [34]: > 100 µM | GI50 [35]: 2.06 µM | TGI [35]: 4.73 µM | GI50 [36]: 2.18 µM | TGI [36]: 7.24 µM | GI50 [37]: 3.81 µM | TGI [37]: 86.4 µM | GI50 [38]: 3.43 µM | TGI [38]: 12.7 µM | GI50 [39]: 3.35 µM | TGI [39]: 14.4 µM | GI50 [40]: 8.54 µM | TGI [40]: 23.9 µM | GI50 [41]: 3 µM | TGI [41]: 14.3 µM | GI50 [42]: 5.37 µM | TGI [42]: 27.7 µM | GI50 [43]: 12 µM | TGI [43]: 26.4 µM | GI50 [44]: 3.94 µM | TGI [44]: 41.8 µM | GI50 [45]: 3.74 µM | TGI [45]: 35.5 µM | GI50 [46]: 2.08 µM | TGI [46]: 4.35 µM | GI50 [47]: 3.86 µM | TGI [47]: 14.7 µM | GI50 [48]: 1.04 µM | TGI [48]: 2.72 µM | GI50 [49]: 3.24 µM | TGI [49]: > 100 µM | GI50 [50]: 5.01 µM | TGI [50]: 17.6 µM | GI50 [51]: 3.86 µM | TGI [51]: 16.4 µM | GI50 [52]: 10.5 µM | TGI [52]: 32 µM | GI50 [53]: 2.41 µM | TGI [53]: 5.6 µM | GI50 [54]: 1.89 µM | TGI [54]: 4.22 µM | GI50 [55]: 7.04 µM | TGI [55]: 88.7 µM
